Where a name gives a salt, the structure may show the parent alone.
Experiments:
[1] = target: T1, human Cyclin E/CDK2 (Homo sapiens, UniProt P24941); assay: CDK2 FlashPlate Assay; assay type: biochemical; conditions: inhibition of Rb phosphorylation, 33P-ATP, 25 minutes at room temperature
T1 construct: made in house; host or cells: insect cells
Method: To determine inhibition of CDK2 activity, purified recombinant retinoblastoma (Rb) protein was coated on 96 well FlashPlates (New England Nuclear, Boston, Mass.). […] Recombinant active human Cyclin E/CDK2 complexes were partially purified from extracts of insect cells. […] Plates were incubated for 25 minutes at room temperature with shaking, then washed and counted in the Topcount scintillation counter (Packard Instrument Co., Downers Grove, Ill.). Dilutions of test compounds were tested in duplicate in each assay. The percent inhibition of Rb phosphorylation, which is a measure of the inhibition of CDK2 activity, was determined according to the following formula: [formula]
where “test compound” refers to the average counts per minute of the test duplicates, “nonspecific” refers to the average counts per minute when no Cyclin E/CDK2 was added, and “total” refers to the average counts per minute when no compound was added.

[2] = tested on: MDA-MB435 breast carcinoma cell line; assay: Tetrazolium dye proliferation assay, MDA-MB435; assay type: cell-based; conditions: MTT, 5 days post addition of test compound, 2000 cells per well
Method: (§1) The cell lines used were MDA-MB435, a breast carcinoma dell line and RKO, a colon carcinoma cell line.
(§2) Teh estrogen receptor negative epithelial breast carcinoma line (MDA-MB435) was purchased from American Type Cell Culture Collection (ATCC; Rockville, Md.) and was grown in the medium recommended by ATCC. For analysis of the test compounds on growth of these cells, the cells were plated at 2000 cells per well in a 96-well tissue culture plate, and were incubated overnight at 37° C. with 5% CO2. The next day, the test compounds were dissolved in 100% dimethyl sulfoxide (DMSO) to yield a 10 mM stock solution. […] The compounds were then serially diluted in medium with 1.2% DMSO. One-fourth final volume of the diluted compounds was transferred to 96 well plates. Test compounds were assayed in duplicate. DMSO was added to a row of “control cells” such that the final concentration of DMSO in each well was 0.3%. Wells to which no cells were added served as the “blank.” Wells to which no inhibitor was added served as “no inhibitor control”. The plates were returned to the incubator, and 5 days post addition of test compound, were analyzed as described below.
(§3) 3-(4,5-Dimethylthiazole-2-yl)-2,5-diphenyl-2H-tetrazolium bromide (thiazolyl blue; MTT) was added to each well to yield a final concentration of 1 mglmL. The plates were then incubated at 37° C. for 3 hours. The plates were centrifuged at 1000 rpm for 5 minutes prior to aspiration of the MTT-containing medium. The MTT-containing medium was then removed and 100 μL 100% EtOH was added to each well to dissolve the resulting formazan metabolite. To ensure complete dissolution, plates were shaken for 15 minutes at room temperature. Absorbencies were read in a microliter plate reader (Molecular Dynamics) at a wavelength of 570 nm with a 650 nm reference. Percent inhibition was calculated by subtracting the absorbency of the blank (no cell) wells from all wells, then subtracting the division of the average absorbency of each test duplicate by the average of the controls from 1.00. Inhibitory concentrations (IC50) were determined from the linear regression of a plot of the logarithm of the concentration versus the percent inhibition.

[3] = tested on: RKO colon carcinoma cell line; assay: Tetrazolium dye proliferation assay, RKO; assay type: cell-based; conditions: MTT, 5 days post addition of test compound, 500 cell per well
Method: as §1, §2, §3
The colon carcinoma line RKO was also obtained from the ATCC and was tested according to the same protocol provided above except that the cell line RKO was plated at 500 cell per well.

[4] = Homo sapiens, MDA-MB-435, 120 h

Row | Structure (SMILES) | IC50 [1] [µM] | IC50 [2, 4] [µM] | IC50 ([3]; Colon carcinoma cell, 120 h) [µM] | IC50 [2] [µM] | IC50 [3] [µM]
1 | CCC(C)c1cc(-c2ccc[nH]2)c2c3c(ccc(F)c13)NC2=O (racemic) [Example 26, (rac)-5-sec-Butyl-6-fluoro-3-(1H-pyrrol-2-yl)-1H-benzo[cd]indol-2-one] | ≤ 10 | – | – | – | –
2 | O=C1Nc2ccc(F)c3c2C1=C(c1ccc[nH]1)CC3 [Example 6, 6-fluoro-3-(1H-pyrrol-2-yl)-4,5-dihydro-1H-benzo[cd]indol-2-one] | ≤ 10 | ≤ 10 | ≤ 10 | – | –
3 | O=C1Nc2ccc(F)c3ccc(-c4ccc[nH]4)c1c23 [Example 7, 6-Fluoro-3-(1H-pyrrol-2-yl)-1H-benzo[cd]indol-2-one] | ≤ 10 | ≤ 10 | ≤ 10 | – | –
4 | COc1cc(-c2ccc[nH]2)c2c3c(ccc(F)c13)NC2=O [Example 13, 6-Fluoro-5-methoxy-3-(1H-pyrrol-2-yl)-1H-benzo[cd]indol-2-one] | ≤ 10 | ≤ 10 | ≤ 10 | – | –
5 | CCOc1cc(-c2ccc[nH]2)c2c3c(ccc(F)c13)NC2=O [Example 14, 5-Ethoxy-6-fluoro-3-(1H-pyrrol-2-yl)-1H-benzo[cd]indol-2-one] | ≤ 10 | – | – | – | –
6 | O=C1Nc2ccc(F)c3c(NCCO)cc(-c4ccc[nH]4)c1c23 [Example 15, 6-Fluoro-5-(2-hydroxy-ethylamino)-3-(1H-pyrrol-2-yl)-1H-benzo[cd]indol-2-one] | ≤ 10 | ≤ 10 | ≤ 10 | – | –
7 | O=C1Nc2ccc(F)c3c(OCCO)cc(-c4ccc[nH]4)c1c23 [Example 16, 6-Fluoro-5-(2-hydroxyethoxy)-3-(1H-pyrrol-2-yl)-1H-benzo[cd]indol-2-one] | ≤ 10 | ≤ 10 | ≤ 10 | – | –
8 | O=C1Nc2ccc(F)c3c(OCCCO)cc(-c4ccc[nH]4)c1c23 [Example 17, 6-Fluoro-5-(3-hydroxy-propoxy)-3-(1H-pyrrol-2-yl)-1H-benzo[cd]indol-2-one] | ≤ 10 | – | – | – | –
9 | NCCOc1cc(-c2ccc[nH]2)c2c3c(ccc(F)c13)NC2=O [Example 19, 5-(2-Amino-ethoxy)-6-fluoro-3-(1H-pyrrol-2-yl)-1H-benzo[cd]indol-2-one] | – | ≤ 10 | ≤ 10 | – | –
10 | NCCOc1cc(-c2ccc[nH]2)c2c3c(ccc(F)c13)NC2=O [Example 20, 5-(2-Amino-ethoxy)-6-fluoro-3-(1H-pyrrol-2-yl)-1H-benzo[cd]indol-2-one methanesulfonic acid salt] | ≤ 10 | – | – | – | –
11 | NCCCNc1cc(-c2ccc[nH]2)c2c3c(ccc(F)c13)NC2=O [Example 21, 5-(3-Amino-propylamino)-6-fluoro-3-(1H-pyrrol-2-yl)-1H-benzo[cd]indol-2-one acetic acid salt] | ≤ 10 | ≤ 10 | ≤ 10 | – | –
12 | CC(C)(N)CNc1cc(-c2ccc[nH]2)c2c3c(ccc(F)c13)NC2=O [Example 22, 5-(2-Amino-2-methyl-propylamino)-6-fluoro-3-(1H-pyrrol-2-yl)-1H-benzo[cd]indol-2-one] | ≤ 10 | ≤ 10 | ≤ 10 | – | –
13 | O=C1Nc2ccc(F)c3c(N4CCOCC4)cc(-c4ccc[nH]4)c1c23 [Example 23, 6-Fluoro-5-morpholin-4-yl-3-(1H-pyrrol-2-yl)-1H-benzo[cd]indol-2-one] | ≤ 10 | ≤ 10 | ≤ 10 | – | –
14 | O=C1Nc2ccc(F)c3c(N4CCNCC4)cc(-c4ccc[nH]4)c1c23 [Example 24, 6-Fluoro-5-piperazin-1-yl-3-(1H-pyrrol-2-yl)-1H-benzo[cd]indol-2-one acetic acid salt] | ≤ 10 | ≤ 10 | ≤ 10 | – | –
15 | Cc1cc(-c2ccc[nH]2)c2c3c(ccc(F)c13)NC2=O [Example 25, 6-Fluoro-5-methyl-3-(1H-pyrrol-2-yl)-1H-benzo[cd]indol-2-one] | ≤ 10 | – | – | – | –
16 | CCc1cc(-c2ccc[nH]2)c2c3c(ccc(F)c13)NC2=O [Example 27, 5-Ethyl-6-fluoro-3-(1H-pyrrol-2-yl)-1H-benzo[cd]indol-2-one] | ≤ 10 | – | – | – | –
17 | O=C1Nc2ccc(F)c3c(N4CCNC4=O)cc(-c4ccc[nH]4)c1c23 [Example 28, 6-Fluoro-5-(2-oxo-imidazolidin-1-yl)-3-(1H-pyrrol-2-yl)-1H-benzo[cd]indol-2-one] | ≤ 10 | – | – | – | –
18 | CC(=O)NCCNc1cc(-c2ccc[nH]2)c2c3c(ccc(F)c13)NC2=O [Example 29, N-[2-[6-Fluoro-2oxo-3-(1H-pyrrol-2-yl)-1,2-dihydro-benzo[cd]indol-5-ylamino]-ethyl]-acetamide] | ≤ 10 | – | – | – | –
19 | CCN(CC)CCNc1cc(-c2ccc[nH]2)c2c3c(ccc(F)c13)NC2=O [Example 31, 5-(2-Diethylamino-ethylamino)-6-fluoro-3-(1H-pyrrol-2-yl)-1H-benzo[cd]indol-2-one] | ≤ 10 | – | – | – | –
20 | O=C1Nc2ccc(F)c3c(N4CC[C@@H](O)C4)cc(-c4ccc[nH]4)c1c23 [Example 32] | ≤ 10 | ≤ 10 | ≤ 10 | – | –
21 | O=C1Nc2ccc(F)c3c(N4CCC(O)CC4)cc(-c4ccc[nH]4)c1c23 [Example 33, 6-Fluoro-5-(4-hydroxy-piperidin-1-yl)-3-(1H-pyrrol-2-yl)-1H-benzo[cd]indol-2-one] | ≤ 10 | ≤ 10 | ≤ 10 | – | –
22 | O=C1Nc2ccc(F)c3c(N4CCCC(CO)C4)cc(-c4ccc[nH]4)c1c23 (centres unmarked) [Example 34, 6-Fluoro-5-(3-hydroxymethyl-piperidin-1-yl)-3-(1H-pyrrol-2-yl)-1H-benzo[cd]indol-2one] | – | ≤ 10 | ≤ 10 | – | –
23 | O=C1Nc2ccc(F)c3c(N4CCCC(O)C4)cc(-c4ccc[nH]4)c1c23 (centres unmarked) [Example 35, 6-Fluoro-5-(3-hydroxy-piperidin-1-yl)-3-(1H-pyrrol-2-yl)-1H-benzo[cd]indol-2-one] | – | ≤ 10 | ≤ 10 | – | –
24 | O=C1Nc2ccc(F)c3c(SCCO)cc(-c4ccc[nH]4)c1c23 [Example 36, 6-Fluoro-5-(2-hydroxyethylsulfanyl)-3-(1H-pyrrol-2-yl)-1H-benzo[cd]indol-2-one] | ≤ 10 | ≤ 10 | ≤ 10 | – | –
25 | O=C1Nc2ccc(F)c3c([S+]([O-])CCO)cc(-c4ccc[nH]4)c1c23 (centres unmarked) [Example 37, 6-Fluoro-5-(2-hydroxy-ethanesulfinyl)-3-(1H-pyrrol-2-yl)-1H-benzo[cd]indol-2-one] | – | – | ≤ 10 | – | –
26 | O=C1Nc2ccc(F)c3c(S(=O)(=O)CCO)cc(-c4ccc[nH]4)c1c23 [Example 38, 6-Fluoro-5-(2-hydroxy-ethanesulfonyl)-3-(1H-pyrrol-2-yl)-1H-benzo[cd]indol-2-one] | ≤ 10 | ≤ 10 | ≤ 10 | – | –
27 | NCCSc1cc(-c2ccc[nH]2)c2c3c(ccc(F)c13)NC2=O [Example 40, 5-(2-Amino-ethylsulfanyl)-6-fluoro-3-(1H-pyrrol-2-yl)-1H-benzo[cd]indol-2-one] | ≤ 10 | ≤ 10 | ≤ 10 | – | –
28 | NCC[S+]([O-])c1cc(-c2ccc[nH]2)c2c3c(ccc(F)c13)NC2=O (centres unmarked) [Example 42, 5-(2-Amino-ethanesulfinyl)-6-fluoro-3-(1H-pyrrol-2-yl)-1H-benzo[cd]indol-2-one] | – | ≤ 10 | ≤ 10 | – | –
29 | NCC[S+]([O-])c1cc(-c2ccc[nH]2)c2c3c(ccc(F)c13)NC2=O (centres unmarked) [Example 43, 5-(2-Amino-ethanesulfinyl)-6-fluoro-3-(1H-pyrrol-2-yl)-1H-benzo[cd]indol-2-one hydrochloride salt] | – | – | – | ≤ 10 | ≤ 10
30 | NCCS(=O)(=O)c1cc(-c2ccc[nH]2)c2c3c(ccc(F)c13)NC2=O [Example 44, 5-(2-Amino-ethanesulfonyl)-6-fluoro-3-(1H-pyrrol-2-yl)-1H-benzo[cd]indol-2-one] | ≤ 10 | ≤ 10 | ≤ 10 | – | –

Source: patent publication US6531598B1, “Naphthostyrils” (Hoffmann-La Roche Inc., priority 2001, dated 2003)
